In one data set the test system is Ovarian cancer cell line. The data set can be described thus: Anticancer activity against patient-derived human Ovarian tumor cells assessed as tumor growth inhibition incubated for 72 hrs by FMCA assay. Format: functional, cell-based.
The nature of data set [1]: Cytotoxicity against patient-derived human mononuclear cells assessed as cell growth inhibition incubated for 72 hrs by FMCA assay. Format: toxicity, cell-based, Mononuclear cell line.
A short description of data set [2]: Anticancer activity against patient-derived human Colorectal tumor cells assessed as tumor growth inhibition incubated for 72 hrs by FMCA assay. Format: functional, cell-based. The note with it: Colorectal cancer cell.
A short description of data set [3]: Anticancer activity against patient-derived human CLL tumor cells assessed as tumor growth inhibition incubated for 72 hrs by FMCA assay. Format: functional, cell-based. To be noted: CLL cell.
For a further data set, the system named is Mahlavu. The data set can be described thus: Cytotoxicity against human Mahlavu cells assessed as inhibition of cell viability incubated upto 72 hrs by MTT assay. Format: functional, cell-based. (Tetrazolium dyes change colour on reduction, which living cells bring about.)

The text below walks through data of ChEMBL document CHEMBL5108035, “Acriflavine, an Acridine Derivative for Biomedical Application: Current State of the Art” (J Med Chem, 2022).

Molecules are shown by their SMILES.

For orientation: IC50 means the concentration that gives 50% inhibition.

Take `O=c1[nH]cc(F)c(=O)[nH]1` [FLUOROURACIL]: the IC50 amounted to 563 µM in the data set on Ovarian cancer cell line, 755 µM in data set [2] and 658 µM in data set [3]. Also, the IC50 at 72 h in data set [1] was 430 µM.
For `CCc1c2c(nc3ccc(OC(=O)N4CCC(N5CCCCC5)CC4)cc13)-c1cc3c(c(=O)n1C2)COC(=O)[C@]3(O)CC` [IRINOTECAN], the IC50 in the data set on Ovarian cancer cell line was 75.3 µM; in data set [2], 89.6 µM.
As to `CNC(=O)c1cc(Oc2ccc(NC(=O)Nc3ccc(Cl)c(C(F)(F)F)c3)cc2)ccn1` [SORAFENIB], the IC50 in the data set with Mahlavu was determined as 13.4 µM.
